From patent US8664289B2, “Dye and coloring photosensitive composition” (Adeka Corporation, priority 2010, dated 2014) come the findings set out here.

What all share (type): physicochemical
Data set [1] is described as follows: Solubility in PGMEA. The following applies: concentration when PGMEA was added dropwise to 0.1 g of the compound under stirring and was dissolved completely. On the procedure:
That the obtained solid was an intended product was confirmed by ^1H-NMR and IR. Furthermore, the solubility of the obtained compound was measured. The solubility was a concentration when PGMEA was added dropwise to 0.1 g of the compound under stirring and was dissolved completely. The results thereof are shown in [Table 1] to [Table 4].
That the obtained solid was an intended product was confirmed by ^1H-NMR and IR. Furthermore, the solubility of the obtained compound was measured. The solubility was a concentration when PGMEA was added to 0.1 g of the compound while stirring and was dissolved completely. The results thereof are shown in [Table 1] to [Table 4]

A short description of data set [2]: Evaluation of absorption wavelength property in CHCl3 solution. The following applies: for ε: molar absorption coefficient. Set-up: ε: unit not given here. From the text: The absorption wavelength properties of Compounds Nos. 1 to 7, 16, 26, 43, 52 to 62, 65, 66, 69, 70 and 94 to 102 and Comparative Compounds Nos. 1 and 2 obtained above were each evaluated in a CHCl3 solution. The results are shown in [Table 5].

Data set [3] in a line: Evaluation of heat resistance by TG-DTA. The following applies: temperature at 10% weight loss. As to the method:
Compounds Nos. 1 to 7, 16, 26, 43, 52 to 62, 65, 66, 69, 70 and 94 to 102 and Comparative Compounds Nos. 1 and 2 obtained above were analyzed by TG-DTA, and the melting points and temperatures at 10% weight loss were measured. The results are shown in [Table 6].

Data set [4] can be described thus: Heat resistance of exposed coating film of coloring alkali-developable photosensitive composition. Particulars: for Relative intensity After exposure: coating film after exposure (150 mJ/cm^2), before heating; for λmax: coating film of composition containing the compound, on glass; for Relative intensity 230° C., 30 min: exposed coating film after 230° C. From the text:
30.33 g of ACA Z250 (manufactured by Daicel Cytec Company Ltd.) and 11.04 g of ARONIX M-450 (manufactured by Toagosei Co., Ltd.) as the component (B), 1.93 g of IRGACURE 907 (manufactured by BASF) as the component (C), 36.60 g of PGMEA and 20.08 g of cyclohexanone as the component (E), as well as 0.01 g of FZ2122 (manufactured by Dow Corning Toray Co., Ltd.) as other component were mixed and stirred until insoluble components were diminished to give Alkali-developable photosensitive composition No. 1.
1.90 g of dimethylacetamide was added to 0.10 g of Compound No. 1 obtained above as the component (A) and dissolved under stirring.
5.0 g of Alkali-developable photosensitive composition No. 1 obtained in Step 1 and 1.0 g of Dye liquid No. 1 obtained in Step 2 were mixed and stirred to homogeneous to give Coloring alkali-developable photosensitive composition No. 1 of the present invention.
Coloring alkali-developable photosensitive compositions Nos. 2 to 20 were obtained in a similar manner to that in Example 2-1, except that Compound No. 1 as the component (A) in Step 2 of Example 2-1 was changed to Compound No. 2, 3, 5, 6, 16, 53, 56, 57, 59, 60, 65, 66, 94 or 96 to 101 obtained above.
Comparative coloring alkali-developable photosensitive compositions Nos. 1 and 2 were obtained in a similar manner to that in Example 2-1, except that Compound No. 1 as the component (A) in Step 2 of Example 2-1 was changed to Comparative Compound No. 1 or 2.
The coloring alkali-developable photosensitive compositions obtained in Example 2 were each applied to a glass basal plate under a condition of 410 rpm×7 sec and dried (90° C., 90 sec) on a hot plate. The obtained coating film was exposed (150 mJ/cm^2) by using an ultrahigh pressure mercury lamp. The heat resistance of the exposed coating film was investigated under conditions of 180° C.×60 min and 230° C.×30 min. The results are shown in [Table 7].
Using the coloring alkali-developable photosensitive compositions obtained in Examples 2-2 to 2-20 and Comparative Examples 2-1 and 2-2, heat resistance was investigated in a similar manner to that in Evaluation Example 3. The results are shown in [Table 7].

Consider `CCN(CC)c1ccc(/C=C(\C#N)C(=O)Oc2ccc(C3(c4ccc(OC(=O)/C(C#N)=C/c5ccc(N(CC)CC)cc5)cc4)CCCCC3)cc2)cc1` [Compound No. 52], for which the “Solubility (PGMEA)” value in data set [1] was found to be 0.6 wt %. In data set [2], this compound had a λmax of 441 nm and a ε of 121000. Moreover, in data set [3], the 10% weight loss came out at 322 °C.

For `CCN(CC)c1ccc(/C=C(\C#N)C(=O)OCCCOC(=O)/C(C#N)=C/c2ccc(N(CC)CC)cc2)cc1` [Compound No. 3], in data set [4], the “Relative intensity After exposure” value came to 100; the λmax was found to be 433 nm; the “Relative intensity 230° C., 30 min” value was determined as 99.4. Moreover, the “Solubility (PGMEA)” value in data set [1] was 0.4 wt %. In addition, in data set [2], the λmax came out at 435 nm and the ε was 104000. Further, the 10% weight loss in data set [3] worked out at 329 °C.

Take `CCN(CC)c1ccc(/C=C(\C#N)C(=O)OCC(C)(COC(=O)/C(C#N)=C/c2ccc(N(CC)CC)cc2)COC(=O)/C(C#N)=C/c2ccc(N(CC)CC)cc2)cc1` [Compound No. 56]: in data set [4], the “Relative intensity After exposure” value is on record as 100; the λmax is listed as 430 nm; the “Relative intensity 230° C., 30 min” value is 99.9. In data set [1], the “Solubility (PGMEA)” value came to 5.6 wt %. In data set [2], this compound returned a λmax of 436 nm and a ε of 160000. The compound also returned a 10% weight loss in data set [3] of 334 °C.

In the case of `CCN(CC)c1ccc(/C=C(\C#N)C(=O)NCC(C)NC(=O)/C(C#N)=C/c2ccc(N(CC)CC)cc2)cc1` (centres unmarked) [Compound No. 54], the “Solubility (PGMEA)” value in data set [1] is on record as 1.0 or less wt %. In data set [2], this compound returned a λmax of 428 nm and a ε of 90500. In addition, in data set [3], the 10% weight loss amounted to 354 °C.

`CCN(CCC#N)c1ccc(/C=C(\C#N)C(=O)OCCCCCCOC(=O)/C(C#N)=C/c2ccc(N(CC)CCC#N)cc2)cc1` [Compound No. 58]: the “Solubility (PGMEA)” value in data set [1] is 1.0 or less wt %. In data set [2], this compound showed a λmax of 420 nm and a ε of 80500. In addition, the 10% weight loss in data set [3] was 351 °C.

As for `CCOCCOC(=O)C(C#N)=C(C)c1ccc(N(CC)CC)cc1` [Comparative Compound No. 2, reference compound], in data set [2], the λmax is reported as 432 nm and the ε is recorded as 57200. Further, the 10% weight loss in data set [3] worked out at 252 °C.

On to `CCN(CC)c1ccc(/C=C(\C#N)C(=O)OCC(C)(COC(=O)/C(C#N)=C/c2ccc(N(CC)CC)cc2)COC(=O)/C(C#N)=C/c2ccc(N(c3ccccc3)c3ccccc3)cc2)cc1` (centres unmarked) [Compound No. 96], for which, in data set [4], the “Relative intensity After exposure” value is reported as 100; the λmax came out at 433 nm; the “Relative intensity 230° C., 30 min” value came to 99.5. Besides, the “Solubility (PGMEA)” value in data set [1] is 10.0 wt %. Besides, in data set [2], the λmax was determined as 437 nm and the ε amounted to 138000. The compound also came in with a 10% weight loss in data set [3] of 347 °C.

Consider `CCN(CC)c1ccc(/C=C(\C#N)C(=O)Oc2ccc(C(C)(C)c3ccc(OC(=O)/C(C#N)=C/c4ccc(N(CC)CC)cc4)cc3)cc2)cc1` [Compound No. 6], for which, in data set [4], the “Relative intensity After exposure” value is 100; the λmax was determined as 442 nm; the “Relative intensity 230° C., 30 min” value was determined as 99.9. For the same compound, the “Solubility (PGMEA)” value in data set [1] came out at 0.9 wt %. In data set [2], this compound came in with a λmax of 440 nm and a ε of 132000. This compound came in with a 10% weight loss in data set [3] of 322 °C.

As to `CCN(CC)c1ccc(/C=C(\C#N)C(=O)NCCCCCCNC(=O)/C(C#N)=C/c2ccc(N(CC)CC)cc2)cc1` [Compound No. 7], in data set [1], the “Solubility (PGMEA)” value is listed as 0.2 wt %. In data set [2], this compound had a λmax of 432 nm and a ε of 99600. In data set [3], this compound had a 10% weight loss of 352 °C.

In the case of `CCN(CC)c1ccc(/C=C(\C#N)C(=O)OCCCCCOC(=O)/C(C#N)=C/c2ccc(N(CC)CC)cc2)cc1` [Compound No. 4], in data set [1], the “Solubility (PGMEA)” value was found to be 0.6 wt %. For the same compound, in data set [2], the λmax came out at 431 nm and the ε was 110000. This compound yielded a 10% weight loss in data set [3] of 335 °C.

In the case of `CCN(CC)c1ccc(/C=C(\C#N)C(=O)Oc2ccc(-c3nc(-c4ccc(OC(=O)/C(C#N)=C/c5ccc(N(CC)CC)cc5)cc4)nc(-c4ccc(OC(=O)/C(C#N)=C/c5ccc(N(CC)CC)cc5)cc4)n3)cc2)cc1` [Compound No. 26], the “Solubility (PGMEA)” value in data set [1] is 1.0 or less wt %. In data set [2], this compound gave a λmax of 447 nm and a ε of 210000. Further, the 10% weight loss in data set [3] worked out at 321 °C.

`CCOCCOC(=O)/C(C#N)=C/c1ccc(N(CC)CC)cc1` [Comparative Compound No. 2, reference compound]: in data set [4], the “Relative intensity After exposure” value worked out at 100; the λmax came out at 433 nm; the “Relative intensity 230° C., 30 min” value came out at 24.0.

For `CC(COC(=O)/C(C#N)=C/c1ccc(N2CCOCC2)cc1)OC(=O)/C(C#N)=C/c1ccc(N2CCOCC2)cc1` (centres unmarked) [Compound No. 43], the “Solubility (PGMEA)” value in data set [1] is given as 1.0 or less wt %. Moreover, in data set [2], the λmax stood at 408 nm and the ε came to 62800. The compound further had a 10% weight loss in data set [3] of 318 °C.

With `CCCCN(CCCC)c1ccc(/C=C(\C#N)C(=O)Oc2ccc(C(c3ccc(OC(=O)/C(C#N)=C/c4ccc(N(CCCC)CCCC)cc4)cc3)(C(F)(F)F)C(F)(F)F)cc2)cc1` [Compound No. 69], the “Solubility (PGMEA)” value in data set [1] is listed as 1.0 or less wt %. In data set [2], the λmax worked out at 448 nm and the ε is listed as 107000. Also, the 10% weight loss in data set [3] was 336 °C.

Turning to `CCCCN(CCCC)c1ccc(/C=C(\C#N)C(=O)Oc2ccc(S(=O)(=O)c3ccc(OC(=O)/C(C#N)=C/c4ccc(N(CCCC)CCCC)cc4)cc3)cc2)cc1` [Compound No. 70], the “Solubility (PGMEA)” value in data set [1] is on record as 1.0 or less wt %. In data set [2], this compound yielded a λmax of 453 nm and a ε of 135000. This compound also had a 10% weight loss in data set [3] of 324 °C.

For `CCCCN(CCCC)c1ccc(/C=C(\C#N)C(=O)OCC(C)(COC(=O)/C(C#N)=C/c2ccc(N(CCCC)CCCC)cc2)COC(=O)/C(C#N)=C/c2ccc(N(CCCC)CCCC)cc2)cc1` [Compound No. 102], in data set [1], the “Solubility (PGMEA)” value was 7.5 wt %. In data set [2], the λmax amounted to 440 nm and the ε amounted to 125000. The compound further showed a 10% weight loss in data set [3] of 354 °C.

Consider `CCOC(=O)/C(C#N)=C/c1ccc(N(CC)CC)cc1` [Comparative Compound No. 1, reference compound], for which, in data set [2], the λmax stood at 430 nm and the ε is recorded as 54900. This compound also gave a 10% weight loss in data set [3] of 259 °C.

For the compound `CC(=O)OCCN(CCOC(C)=O)c1ccc(/C=C(\C#N)C(=O)OCCCCCCCOC(=O)/C(C#N)=C/c2ccc(N(CCOC(C)=O)CCOC(C)=O)cc2)cc1` [Compound No. 62], the “Solubility (PGMEA)” value in data set [1] is reported as 1.0 or less wt %. Moreover, in data set [2], the λmax amounted to 409 nm and the ε stood at 89900. In data set [3], this compound came in with a 10% weight loss of 366 °C.

On to `CC(COC(=O)/C(C#N)=C/c1ccc(N(C)C)cc1)OC(=O)/C(C#N)=C/c1ccc(N(C)C)cc1` (centres unmarked) [Compound No. 55], for which the “Solubility (PGMEA)” value in data set [1] was 1.0 or less wt %. In data set [2], this compound showed a λmax of 427 nm and a ε of 84600. Further, in data set [3], the 10% weight loss worked out at 323 °C.

For `CN(C)c1ccc(/C=C(\C#N)C(=O)OCCCCCCCCCCOC(=O)/C(C#N)=C/c2ccc(N(C)C)cc2)cc1` [Compound No. 61], the “Solubility (PGMEA)” value in data set [1] is recorded as 1.0 or less wt %. Further, in data set [2], the λmax worked out at 423 nm and the ε was 90800. Moreover, the 10% weight loss in data set [3] was determined as 350 °C.
